The record followed here is patent US20230105693A1, “ANTIMICROBIAL COMPOSITIONS” (Firmenich SA, priority 2020, published 2023).

A short description of one series: physchem. The class given is physicochemical. The procedure:
The partition coefficient (P) is defined as the ratio of the concentrations (C) to the equilibrium of a dissolved and highly diluted substance in a biphasic system consisting of two almost immiscible solvents.
In the case of n-octanol and water:
The partition coefficient P is the quotient of two concentrations, it is generally indicated in its logarithmic form, base 10 (LogP).
The log P values of different perfume ingredients were measured using standard high performance liquid chromatography method, according to the reference (OECD, guideline No. 117, adopted on 13 Apr. 2004, Partition coefficient (n-octanol-water), High Performance Liquid Chromatography (HPLC) Method).

In series [1] the test system is Escherichia coli ATCC 10536. The series can be described thus: Robotic BCT test of perfume ingredients in model surfactant bases. Format: cell-based. As to conditions: for log reduction at 0.5 %: Escherichia coli, ATCC10536, 45 s; for Log reduction (Log CFU/mL) Base 3: Base 3: SLES 1.5%, coco-glucoside 0.75%; for Log reduction (Log CFU/mL) Base 4: Base 4: SLES 2.25%, sodium xylene sulfonate 3%. The protocol: The surfactant bases tested included 1) sodium lauryl ether sulfate (SLES) and cocamidopropyl betaine (CAPB) at 3:1 mass ratios; 2) SLES, CAPB and coco-glucoside at 2:1:1 mass ratios. Test samples were prepared by mixing perfume ingredients with the surfactant bases and vigorously stirred for 24 hrs. Concentration of perfume ingredients in the bases was 0.5% wt. Samples with transparent appearance were selected for antimicrobial testing.
Antimicrobial efficacy was tested against a representative Gram-negative bacterial strain, Escherichia coli ATCC 10536, using robotic bacteria contact time (BCT) test based on European standard EN-1276 and EP2787827(B1).
Preparation of screening plate and dilution plate: Aliquots (270 µl) of compositions were dispensed into the wells of a 96-well microtiter plate (MTP) along two columns (B1-H1, and B7-H7), and 270 µl of MilliQ water was added to well A1 and A7 as the control samples. This MTP was labelled as the “Screening plate”. In another MTP, labelled as the “Dilution plate”, 270 µL of Dey-Engley (D/E) neutralizing solution was added to column 1 and column 7. 270 µl of tryptone diluent solution was added to columns 2-6 and columns 8-12 of the Dilution MTP by a Hamilton robotic liquid handling station.
BCT test & neutralization & dilution: Bacterial stock (30 µl) was then added to columns 1 of the ‘Screening plate’ and mixed by a Hamilton robotic liquid handling station. After a contact time of 45 seconds, 30 µl of the mixtures in column 1 were transferred into the corresponding wells of column 1 of the ‘Dilution plate’. After neutralizing for 5 minutes in the D/E neutralizing solution, 30 µl of the neutralized mixtures were transferred from column 1 to column 2 of the Dilution MTP and mixed, followed by transferring 30 µl of the mixtures from column 2 into column 3. This process was repeated serially diluting the bacteria suspensions across the plate to column 6. Bacterial stock (30 µl) was then added to columns 7 of the ‘Screening plate’ and mixed by a Hamilton robotic liquid handling station. After a contact time of 45 seconds, 30 µl of the mixtures in column 7 were transferred into the corresponding wells of column 7 of the ‘Dilution plate’. After neutralizing for 5 minutes in the D/E neutralizing solution, 30 µl of the mixtures were transferred from column 7 to column 8 of the Dilution MTP and mixed, followed by transferring further 30 µl mixtures from column 8 into column 9. This process was repeated serially diluting the bacteria suspensions across the plate to column 12.
Plating: 30 µl volumes from each well in the Dilution MTP were transferred onto four Tryptone Soya Agar (TSA) plates. The TSA plates were allowed to stand for about two hours so that the 30 µl inocula spots could dry and the plates were then inverted and incubated overnight at 37° C. for 24 hours. After incubation, colonies were counted.
Calculating log reduction: Select the dilutions with colony counts, and calculate the viable cell counts (CFU/mL) of mixture in ‘Screening plate’, and log reduction against the control MilliQ sample was calculated.

The nature of series [2]: Equivalent alkane carbon number (EACN) in model microemulsion system. Format: physicochemical. As to conditions: C10E5/water/isopropyl myristate model system, 3% wt perfume ingredient. The protocol: EACN values provide information on polarity and surface activity of apolar ingredients. Tchakalova and Fieber (J. of Surfactants and Detergents, 2012, 15(2):167-177) classified perfume ingredients based on values of EACNmix, the EACN of a mixture consisting of a test perfume ingredient and a reference oil (isopropyl myristate). The same model system and method were used to measure the EACN values of perfume ingredients with antimicrobial activities. Different perfume ingredients were added to the model microemulsion system shown in Table 1, in which the nonionic pentaethylene glycol mono n-decyl ether (C10E5) was used as surfactant. Phase transition temperatures of the system from Winsor I to Winsor III, and from Winsor III to Winsor II were determined using a water bath. Alkanes with different alkane carbon numbers (octane, decane, dodecane and hexadecane) were used to establish a linear correlation curve between EACN and the PIT, which is the average of the transitions from Winsor I to Winsor III, and from Winsor III to Winsor II, respectively. EACNmix was then calculated based on the linear relationship and the measured PIT for systems containing different perfume ingredients. The EACN of the pure perfume ingredient was calculated based on the molar ratio of the tested PRMs in the oil phase using following equation: […]
wherein n and nref are the molar fractions of tested perfume ingredient and the reference ingredient (i.e., isopropyl myristate) in the oil phase, respectively.

[3] abbreviates: model base 1, table by functional group, read-out: Log reduction in Base 1 (Log CFU/mL).
[4] abbreviates: n-octanol/water, HPLC method, read-out: Log P.
Where [5] appears, read: 0.5% perfume ingredient, Base 1: SLES 1.875%, CAPB 0.625%, contact 45 s, read-out: Log reduction in Base 1 (Log CFU/mL).
Where [6] appears, read: 0.5% perfume ingredient, Base 1: SLES 1.875%, CAPB 0.625%, contact 45 s.
[7] abbreviates: 0.5% perfume ingredient, Base 2: SLES 2.25%, CAPB 0.75%, contact 45 s.
Where [8] appears, read: 0.5% perfume ingredient, CAPB 0.75%, contact 45 s.
[9] abbreviates: model base 1, table by functional group.
[10] abbreviates: 0.5% perfume ingredient, Base 2: SLES 2.25%, CAPB 0.75%, contact 45 s, read-out: Log reduction (Log CFU/mL) Base 2.

Like-named read-outs stand apart in the source and are kept apart here.

On to `C/C(C=O)=C\c1ccccc1` [(2E)-2-methyl-3-phenyl-2-propenal], for which the chromatographic logP in the series “physchem” was 2.56. Also, the log reduction at 0.5 % in series [1] (setting [3]) was found to be 3.7. Also, the EACN in series [2] was -12.17.
On to `C=CCc1ccc(O)c(OC)c1` [2-methoxy-4-(2-propen-1-yl)phenol], for which, in “physchem” (setting [4]), the chromatographic logP was 2.14. The log reduction at 0.5 % in series [1] (setting [5]) was determined as 0.2. Moreover, the EACN in series [2] was -31.24.
As for `C=C(C)[C@@H]1CC=C(CO)CC1` [(-)-(S)-1,8-P-menthadien-7-ol], the “Log P” value in “physchem” was found to be 2.68. In addition, the entries for the “Log reduction in Base 1 (Log CFU/mL)” value in series [1] (setting [6]) and in series [1] (setting [9]) were 4.2 ± 0.1 Log CFU/mL and 4.2 Log CFU/mL, respectively. The “Log reduction (Log CFU/mL) Base 2” value in series [1] (setting [7]) came to 0 Log CFU/mL. In addition, in series [1] (setting [8]), the “Log reduction (Log CFU/mL) Base 3” value came out at 1.4 Log CFU/mL. Also, the “Log reduction (Log CFU/mL) Base 4” value in series [1] (setting [8]) came to 2.2 Log CFU/mL. Also, the EACN in series [2] is listed as -30.83.
As for `CCC/C=C/CO` [(2E)-2-hexen-1-ol], the chromatographic logP in “physchem” was 1.73. The log reduction at 0.5 % in series [1] (setting [5]) is -0.2. Besides, the EACN in series [2] was -21.91.
As to `CCCCCCC1CCC(=O)O1` (racemic) [(+-)-4-decanolide], the chromatographic logP in the series “physchem” (setting [4]) was 3.02. In series [1] (setting [8]), the “Log reduction (Log CFU/mL) Base 3” value was found to be 0.6 Log CFU/mL and the “Log reduction (Log CFU/mL) Base 4” value is 0.25 Log CFU/mL. Also, the log reduction at 0.5 % in series [1] (setting [5]) was 0.2 ± 0.3. Further, the log reduction at 0.5 % in series [1] (setting [10]) amounted to 0. The EACN in series [2] is given as -4.96.
For the compound `CC/C(CC(C)CC)=N/O` (racemic) [(+-)-(3Z)-5-methyl-3-heptanone oxime OR (+-)-(3E)-5-methyl-3-heptanone oxime], the “Log P” value in the series “physchem” is listed as 2.45. In series [1] (setting [9]), the “Log reduction in Base 1 (Log CFU/mL)” value is given as 3.3 Log CFU/mL. Also, the EACN in series [2] is on record as -13.67.
Turning to “2 /3 //4-(5,5,6-trimethylbicyclo[2.2.1]hept-2-yl)-1-cyclohexanol(A/B/C) + 2-(1,7,7-trimethylbicyclo[2.2.1]hept-2-yl)-1-cyclohexanol (D)”, the log partition coefficient (Log P) in the series “physchem” is given as 5.23. The “Log reduction in Base 1 (Log CFU/mL)” value in series [1] (setting [6]) is 0.4 Log CFU/mL. The “Log reduction (Log CFU/mL) Base 2” value in series [1] (setting [7]) is given as -1.0 Log CFU/mL. Further, in series [1] (setting [8]), the “Log reduction (Log CFU/mL) Base 3” value is recorded as “Insoluble” and the “Log reduction (Log CFU/mL) Base 4” value is -0.2 Log CFU/mL. Besides, in series [2], the EACN is listed as -16.52.
For `CCC(C)(O)CCCC(C)C` (racemic) [(+-)-3,7-dimethyl-3-octanol], the chromatographic logP in the series “physchem” (setting [4]) amounted to 3.78. In series [1] (setting [8]), the “Log reduction (Log CFU/mL) Base 3” value is recorded as 0.3 Log CFU/mL and the “Log reduction (Log CFU/mL) Base 4” value is reported as 0.4 Log CFU/mL. In series [1] (setting [5]), the log reduction at 0.5 % was found to be 1.9 ± 1.6. For the same compound, the log reduction at 0.5 % in series [1] (setting [10]) is 0. Also, in series [2], the EACN was -4.83.
In “physchem”, `OC/C=C/c1ccccc1` [(2E)-3-phenyl-2-propen-1-ol] registered a chromatographic logP of 1.79. In addition, the log reduction at 0.5 % in series [1] (setting [5]) was 0.1. Besides, in series [2], the EACN was less than -28.19.
Regarding `Cc1ccc(O)cc1` [4-methylphenol], the chromatographic logP in the series “physchem” stood at 1.52. The log reduction at 0.5 % in series [1] (setting [5]) worked out at 0.1. Further, in series [2], the EACN is given as less than -21.95.
The matching figures for `CC(C)c1ccc(CO)cc1` [4-isopropyl-1-benzenemethanol]: 2.23, 1.3 and -36.04.
In the case of `CC(C)(O)CCc1ccccc1` [2-methyl-4-phenyl-2-butanol], the chromatographic logP in “physchem” (setting [4]) came to 2.69. Further, the log reduction at 0.5 % in series [1] (setting [5]) was -0.4. Further, the EACN in series [2] is on record as -24.94.
In the series “physchem”, `CC(CCO)CCc1ccccc1` (racemic) [(+-)-3-methyl-5-phenyl-1-pentanol] gave a chromatographic logP of 3. The “Log reduction (Log CFU/mL) Base 3” value in series [1] (setting [8]) came out at 2.9 Log CFU/mL. Further, in series [1] (setting [8]), the “Log reduction (Log CFU/mL) Base 4” value was found to be 2.8 Log CFU/mL. For the same compound, the log reduction at 0.5 % stood at 5 ± 2.1 in series [1] (setting [5]), 0 in series [1] (setting [10]) and 4.3 in series [1] (setting [3]). Also, the EACN in series [2] is reported as -37.05.

As usually defined, the Log P is the decadic logarithm of the partition coefficient of the neutral form, usually between octanol and water. Low readings indicate lower lipophilicity, high ones higher lipophilicity.
